In PMC5802807, “Heme interaction of the intrinsically disordered N-terminal peptide segment of human cystathionine-β-synthase” (Scientific Reports, 2018):

Molecular target: T1, GB1CBS(1–40) (Homo sapiens, UniProt P35520)
T1 construct: gene CBS; His6 tag cut with thrombin; E. coli BL21(DE3); full-length CBS 551 residues
T1 sequence (P35520 1-40): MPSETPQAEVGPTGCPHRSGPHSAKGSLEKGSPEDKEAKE
Assay: UV/Vis titration, Soret band at […] nm
Assay type: binding

Kd: 2.18 ± 0.64 µM
Structure (SMILES): C=CC1=C(C)C2=Cc3c(C=C)c(C)c4[n]3[Fe]([Cl])[n]3c(c(C)c(CCC(=O)O)c3=CC3=NC(=C4)C(C)=C3CCC(=O)O)=CC1=N2 [hemin]
